# According to patent US20260184710A1, “CASITAS B-LINEAGE LYMPHOMA PROTOONCOGENE B (CBL-B) DEGRADING COMPOUNDS AND ASSOCIATED METHODS OF USE” (Arvinas Operations, Inc., priority 2022, published 2026):
# Assays:
# Cbl-b [1] = biological target: T1, Cbl-b (Homo sapiens, UniProt Q13191); assay: Cbl-b Degradation Method B (Nano-Glo HiBiT lytic detection); type: cell-based; details: Cbl-b-HiBit KI Jurkat Cells, incubated at least 6-24 hours; for DC50: half maximal degradation, read-out: Cbl-b Degredation Method B IC50; for Dmax: read-out: Cbl-b Degredation Method B Dmax (%)
# T1 construct: Cbl-b-HiBit KI Jurkat Cells were purchased from Promega; host or cells: Cbl-b-HiBiT knock-in Jurkat cells
# T1 sequence (Q13191 whole entry): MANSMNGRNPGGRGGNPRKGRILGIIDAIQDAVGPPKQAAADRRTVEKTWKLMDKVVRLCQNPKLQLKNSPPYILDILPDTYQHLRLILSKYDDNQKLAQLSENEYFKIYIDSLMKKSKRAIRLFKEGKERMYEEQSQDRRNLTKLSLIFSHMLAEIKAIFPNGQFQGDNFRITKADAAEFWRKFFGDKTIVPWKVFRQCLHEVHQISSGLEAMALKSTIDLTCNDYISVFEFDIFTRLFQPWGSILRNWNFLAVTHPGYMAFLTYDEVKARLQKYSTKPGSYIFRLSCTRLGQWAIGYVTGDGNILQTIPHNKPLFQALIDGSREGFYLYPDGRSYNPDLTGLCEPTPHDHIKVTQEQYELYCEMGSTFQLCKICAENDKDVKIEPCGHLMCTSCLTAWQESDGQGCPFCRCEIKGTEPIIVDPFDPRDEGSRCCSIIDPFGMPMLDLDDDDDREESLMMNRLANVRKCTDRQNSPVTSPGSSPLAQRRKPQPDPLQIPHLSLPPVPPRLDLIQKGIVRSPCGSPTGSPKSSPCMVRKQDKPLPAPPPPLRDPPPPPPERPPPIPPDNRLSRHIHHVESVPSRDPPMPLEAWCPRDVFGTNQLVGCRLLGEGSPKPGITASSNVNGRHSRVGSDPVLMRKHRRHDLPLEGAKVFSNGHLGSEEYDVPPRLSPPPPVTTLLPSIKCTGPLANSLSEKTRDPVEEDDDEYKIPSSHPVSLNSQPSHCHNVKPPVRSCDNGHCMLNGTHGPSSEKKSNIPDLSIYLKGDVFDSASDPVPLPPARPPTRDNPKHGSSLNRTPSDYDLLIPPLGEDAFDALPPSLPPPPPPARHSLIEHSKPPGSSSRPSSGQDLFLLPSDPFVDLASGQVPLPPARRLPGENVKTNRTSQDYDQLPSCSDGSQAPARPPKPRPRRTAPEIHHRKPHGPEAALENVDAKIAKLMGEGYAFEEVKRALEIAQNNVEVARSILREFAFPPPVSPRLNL
# Summary of the method: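 Cbl-b-HiBiT knock-in Jurkat cells (20,000/well) were treated after ~24 h plating with an 11-point 1:3 series for 6-24 h at 37° C. Remaining Cbl-b measured by Nano-Glo HiBiT lytic luminescence. DC50 and Dmax expressed as % of control.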
# Cbl-b [2] = biological target: T1, Cbl-b; assay: Cbl-b Degradation Method A (FACS, anti-Cbl-b antibody staining); type: cell-based; details: Cbl-b-HiBit KI Jurkat Cells, incubated at least 20 hours; for DC50: half maximal degradation, read-out: Cbl-b Degredation Method A IC50; for Dmax: Jurkat, maximum degradation observed, read-out: Cbl-b Degredation Method A Dmax (%)
# Method: Cbl-b Degradation Method A
# Cbl-b-HiBit KI Jurkat Cells were purchased from Promega, and cell media consisted of RPMI 1640 with 10% FBS and 1% pen/strep. The cells were counted, measured for viability, and 100 μL of the cell solution was into 96 well flat bottom plates at a ratio of 290,000 cells per 100 μL. Compounds were dissolved in DMSO to make a 10 mM stock solution, which was diluted with cell media. 100 μL of the diluted compound mixture was added to the wells. The plate was incubated for at least 20 hours at 37° C. and 5% CO2. After incubation, the plate was shaken at 700-750 RMP for 15-30 minutes to ensure cells were removed from the wells. The wells were transferred to a 96-well v-bottom plate and spun for 2200 RPM for 3 minutes. The supernatant was removed, cells re-suspended in 100 μL of the fixative, and subsequently incubated at room temperature for 15 minutes. Afterwards, 150 μL of DPBS was added to each well, and the cells were centrifuged at 2500 RPM for 3 minutes. The supernatant was removed and the plate was chilled on ice for 2-3 minutes. While still on the ice, 100 μL of Perm III was added to each well, the wells mixed, and subsequently left on the ice for another 15 minutes. Afterwards, the plate was removed from the ice, 150 μL of DBPS was added to each well, and the cells centrifuged at 2700 RPM for 3 minutes. The supernatant was removed, and an additional 200 μL of was DPBS was added to each well, followed by centrifuging at 2700 RPM for 3 minutes, after which the supernatant was removed. The anti-Cbl-b antibody was diluted 1:200 in 1× Perm Wash buffer and 50 μL of the antibody mixture was added to each well and mixed. After addition, the plate was incubated for 35-45 minutes at room temperature. After incubation, 200 μL of DPBS was added to each wells, and the plate centrifuged at 2700 RPM for 3 minutes, followed by the removal of the supernatant. The washing step was repeated by adding 200 μL of DPBS to each wells followed by centrifuge at 2700 RPM for 3 minutes and removal of the supernatant. The a-Rabbit-AF488 antibody was diluted 1:1000 in Perm Wash buffer, 50 μL of the dilution added to each well, and mixed. After mixing, the plate was incubated for 30 minutes at room temperature in the dark. Subsequently, the supernatant was removed, and 200 μL of DBPS added to the cells, which were then centrifuged at 2900 RPM for 4 minutes. The supernatant was removed, and an additional 95 μL of DBPS was added to the wells and mixed. The cells were then transferred to a round bottom polypropylene plate and analyzed using FACS with the parameters below:
# The concentration of an exemplary compound that leads to half maximal degradation (DC50) as well as the maximum degradation observed (Dmax, conventionally expressed as a percentage of control) is shown below in Table 2.
DC50 (Cbl-b [1]),Dmax (Cbl-b [1]; maximum degradation observed),DC50 (Cbl-b [2]),Dmax (Cbl-b [2]),Cbl-b Degredation Method B Dmax (%) (Cbl-b [1]; maximum degradation observed),Structure (SMILES)
5 to 50 nM,35 to 70%,5 to 50 nM,35 to 70%,–,"Cn1cnnc1CC1(c2cccc(N3Cc4c(cc(N5CC6(CCN(CC7CCN(c8ccc9c(c8)C(=O)N(C8CCC(=O)NC8=O)C9=O)CC7)CC6)C5)cc4C(F)(F)F)C3=O)c2)COC1 (stereo not drawn) [Example 115, 2-(2,6-dioxopiperidin-3-yl)-5-[4-({2-[2-(3-{3-[(4-methyl-4H-1,2,4-triazol-3-yl)methyl]oxetan-3-yl}phenyl)-3-oxo-7-(trifluoromethyl)-2,3-dihydro-1H-isoindol-5-yl]-2,7-diazaspiro[3.5]nonan-7-yl}methyl)piperidin-1-yl]-2,3-dihydro-1H-isoindole-1,3-dione]"
< 5 nM,35 to 70%,5 to 50 nM,35 to 70%,–,"CC1c2nc(N3CCC(O[C@H]4CC[C@H](CN5CCC6(C5)CN(c5cc7c(c(C(F)(F)F)c5)CN(c5cccc([C@]8(Cc9nncn9C)C[C@@H](C#N)C8)c5)C7=O)C6)CC4)CC3)ccc2C(=O)N1C1CCC(=O)NC1=O (stereo partly drawn) [Example 178, (1r,3r)-3-[(4-methyl-4H-1,2,4-triazol-3-yl)methyl]-3-{3-[1-oxo-6-(6-{[(1r,4r)-4-({1-[6-(2,6-dioxopiperidin-3-yl)-7-methyl-5-oxo-5H,6H,7H-pyrrolo[3,4-b]pyridin-2-yl]piperidin-4-yl}oxy)cyclohexyl]methyl}-2,6-diazaspiro[3.4]octan-2-yl)-4-(trifluoromethyl)-2,3-dihydro-1H-isoindol-2-yl]phenyl}cyclobutane-1-carbonitrile]"
> 500 nM,–,5 to 50 nM,–,–,"Cn1cnnc1CC1(c2cccc(N3Cc4c(cc(N5CC(C6CN(c7ccc8c(c7)C(=O)N(C7CCC(=O)NC7=O)C8=O)C6)C5)cc4C(F)(F)F)C3=O)c2)COC1 (stereo not drawn) [Example 121, 2-(2,6-dioxopiperidin-3-yl)-5-{1′-[2-(3-{3-[(4-methyl-4H-1,2,4-triazol-3-yl)methyl]oxetan-3-yl}phenyl)-3-oxo-7-(trifluoromethyl)-2,3-dihydro-1H-isoindol-5-yl]-[3,3′-biazetidin]-1-yl}-2,3-dihydro-1H-isoindole-1,3-dione]"
< 5 nM,> 70%,5 to 50 nM,> 70%,–,"COc1c(N2CCC(CN3CCC4(CC3)CN(c3cc5c(c(C(F)(F)F)c3)CN(c3cccc([C@]6(Cc7nncn7C)C[C@@H](C#N)C6)c3)C5=O)C4)CC2)ccc2c1CN(C1CCC(=O)NC1=O)C2=O (stereo partly drawn) [Example 174, (1r,3r)-3-(3-{6-[7-({1-[2-(2,6-dioxopiperidin-3-yl)-4-methoxy-1-oxo-2,3-dihydro-1H-isoindol-5-yl]piperidin-4-yl}methyl)-2,7-diazaspiro[3.5]nonan-2-yl]-1-oxo-4-(trifluoromethyl)-2,3-dihydro-1H-isoindol-2-yl}phenyl)-3-[(4-methyl-4H-1,2,4-triazol-3-yl)methyl]cyclobutane-1-carbonitrile]"
< 5 nM,35 to 70%,5 to 50 nM,35 to 70%,–,"Cc1cc(N2CCC(CN3CCC4(CCN(c5cc6c(c(C(F)(F)F)c5)CN(c5cccc([C@]7(Cc8nncn8C)C[C@@H](C#N)C7)c5)C6=O)C4)C3)CC2)c(F)c2c1C(=O)N(C1CCC(=O)NC1=O)C2 (stereo partly drawn) [Example 177, (1r,3r)-3-(3-{6-[7-({1-[2-(2,6-dioxopiperidin-3-yl)-4-fluoro-7-methyl-1-oxo-2,3-dihydro-1H-isoindol-5-yl]piperidin-4-yl}methyl)-2,7-diazaspiro[4.4]nonan-2-yl]-1-oxo-4-(trifluoromethyl)-2,3-dihydro-1H-isoindol-2-yl}phenyl)-3-[(4-methyl-4H-1,2,4-triazol-3-yl)methyl]cyclobutane-1-carbonitrile]"
< 5 nM,–,5 to 50 nM,35 to 70%,C (C ≤ 35),"CC1c2nc(N3CCC(CN4CCC(CN5CCN(Cc6cc7c(c(C(F)(F)F)c6)CN(c6cccc([C@]8(Cc9nncn9C)C[C@@H](C#N)C8)c6)C7=O)C(C)(C)C5)CC4)CC3)ccc2C(=O)N1C1CCC(=O)NC1=O (stereo partly drawn) [Example 303, (1r,3r)-3-(3-{6-[(4-{[1-({1-[6-(2,6-dioxopiperidin-3-yl)-7-methyl-5-oxo-5H,6H,7H-pyrrolo[3,4-b]pyridin-2-yl]piperidin-4-yl}methyl)piperidin-4-yl]methyl}-2,2-dimethylpiperazin-1-yl)methyl]-1-oxo-4-(trifluoromethyl)-2,3-dihydro-1H-isoindol-2-yl}phenyl)-3-[(4-methyl-4H-1,2,4-triazol-3-yl)methyl]cyclobutane-1-carbonitrile]"
–,–,5 to 50 nM,35 to 70%,–,"Cn1cnnc1CC1(c2cccc(N3Cc4c(cc(N5CC(CC6CN(c7ccc8c(c7)C(=O)N(C7CCC(=O)NC7=O)C8=O)C6)C5)cc4C(F)(F)F)C3=O)c2)COC1 (stereo not drawn) [Example 120, 2-(2,6-dioxopiperidin-3-yl)-5-[3-({1-[2-(3-{3-[(4-methyl-4H-1,2,4-triazol-3-yl)methyl]oxetan-3-yl}phenyl)-3-oxo-7-(trifluoromethyl)-2,3-dihydro-1H-isoindol-5-yl]azetidin-3-yl}methyl)azetidin-1-yl]-2,3-dihydro-1H-isoindole-1,3-dione]"
–,–,5 to 50 nM,> 70%,–,"Cn1cnnc1CC1(c2cccc(N3Cc4c(cc(N5CC(CC6CCN(c7ccc8c(c7)C(=O)N(C7CCC(=O)NC7=O)C8=O)CC6)C5)cc4C(F)(F)F)C3=O)c2)COC1 (stereo not drawn) [Example 133, 2-(2,6-dioxopiperidin-3-yl)-5-[4-({1-[2-(3-{3-[(4-methyl-4H-1,2,4-triazol-3-yl)methyl]oxetan-3-yl}phenyl)-3-oxo-7-(trifluoromethyl)-2,3-dihydro-1H-isoindol-5-yl]azetidin-3-yl}methyl)piperidin-1-yl]-2,3-dihydro-1H-isoindole-1,3-dione]"
–,–,< 5 nM,> 70%,–,"Cn1cnnc1CC1(c2cccc(N3Cc4c(cc(CN5CC6(CCN(C[C@H]7CC[C@H](OC8CCN(c9ccc%10c(c9F)CN(C9CCC(=O)NC9=O)C%10=O)CC8)CC7)CC6)C5)cc4C(F)(F)F)C3=O)c2)COC1 (stereo partly drawn) [Example 6, 3-[4-fluoro-1-oxo-5-(4-{[(1r, 4r)-4-[(2-{[2-(3-{3-[(4-methyl-4H-1,2,4-triazol-3-yl)methyl]oxetan-3-yl}phenyl)-3-oxo-7-(trifluoromethyl)-2,3-dihydro-1H-isoindol-5-yl]methyl}-2,7-diazaspiro[3.5]nonan-7-yl)methyl]cyclohexyl]oxy}piperidin-1-yl)-2,3-dihydro-1H-isoindol-2-yl]piperidine-2,6-dione]"
–,–,< 5 nM,> 70%,–,"Cn1cnnc1CC1(c2cccc(N3Cc4c(cc(CN5CCCC(N6CCC(CN7CCC(CN8CCN(c9ccc%10c(c9)C(=O)N(C9CCC(=O)NC9=O)C%10=O)CC8)CC7)CC6)C5)cc4C(F)(F)F)C3=O)c2)COC1 (stereo not drawn) [Example 109, 2-(2,6-dioxopiperidin-3-yl)-5-[4-({1-[(1′-{[2-(3-{3-[(4-methyl-4H-1,2,4-triazol-3-yl)methyl]oxetan-3-yl}phenyl)-3-oxo-7-(trifluoromethyl)-2,3-dihydro-1H-isoindol-5-yl]methyl}-[1,3′-bipiperidin]-4-yl)methyl]piperidin-4-yl}methyl)piperazin-1-yl]-2,3-dihydro-1H-isoindole-1,3-dione]"
